The values below come from US20240139214A1, “AGENT FOR SUPPRESSING IL-31 PRODUCTION AND PHARMACEUTICAL COMPOSITION CONTAINING THE SAME” (KYUSHU UNIVERSITY, NATIONAL UNIVERSITY CORPORATION, priority 2021, published 2024).

The subject of data set [1] is VEGFA expression in human cancer cell line HT1080. The data set can be described thus: Hypoxia-induced VEGFA expression in HT1080. The format is cell-based. The settings on record: HT1080, 1% O2; FIG. 7. The method, then:
(§1) Human sarcoma cell line HT1080 was provided by Y. Matsumoto (Kyushu University). For hypoxic induction, HT1080 (3×10^5 cells) was cultured in 1% O2 for 12 hours before assays.
(§2) Total RNA was isolated using ISOGEN (Nippon Gene Co., Ltd.). For amplification by PCR, RNA samples treated with RNase-free DNase I (Thermo Fisher Scientific) were reverse-transcribed with oligo(dT) primers (TFS) and SuperScript III reverse transcriptase (TFS). Real-time PCR was performed in a CFX Connect™ thermal cycler (BIO-RAD) using SYBR Green PCR Master Mix (Thermo Fisher Scientific). The expression of mouse and human target genes was normalized to expression of Hprt and PPIB genes, respectively. CFX Manager software (ver.3.1) supplied with the instrument was used for analysis.
(§3) (1) Although EPAS1 is known to control hypoxic responses through complex formation with aryl hydrocarbon receptor nuclear translocator (ARNT) (NPL 6), EPAS1-mediated Il31 promoter activation is independent of ARNT (NPL 4). FM19G11 is not a direct inhibitor of EPAS1, but is known to suppress the expression of the EPAS1 gene (Epas1) by acting on an unidentified target (NPL 7). Treatment of human cancer cell line HT1080 with […] suppressed VEGFA expression and GLUT1 expression induced by hypoxia (FIG. 7).

For data set [2], the system named is GLUT1 expression in human cancer cell line HT1080. The data set can be described thus: Hypoxia-induced GLUT1 expression in HT1080. The format is cell-based. The settings on record: HT1080, 1% O2; FIG. 7. The protocol: as §1, §2, §3
In another data set the test system is mouse IL-31 gene. The data set can be described thus: IL-31 production inhibitory action: IL-31 gene expression by real-time PCR in antigen-stimulated CD4+ T cells from Dock8−/− AND Tg mice. The format is cell-based. The settings on record: for activity at 0.156 µM / activity at 0.312 µM / activity at 0.625 µM / activity at 1.25 µM / activity at 0.078 µM / activity at 2.5 µM: Mus musculus, CD4+ T, 24 h, read-out: qPCR results (IL-31 production (%)): based on the case using 0.1% DMSO taken as 100%. (In qPCR the cycle at which signal appears reflects the starting amount.)

The test system of a further data set is CD4+ T cells. The data set can be described thus: T cell proliferation assay (PMA and ionomycin, 3H-thymidine incorporation). The format is cell-based, mouse. The settings on record: for activity at 5 µM / activity at 10 µM / activity at 20 µM / activity at 40 µM: Mus musculus, CD4+ T, 66 h, read-out: Cell proliferation (%): based on the case using 0.2% DMSO taken as 100%. The protocol: A T cell proliferation assay was performed by culturing CD4^+ T cells (5×10^4 cells) with T cell-depleted irradiated spleen cells (1×10^6 cells) in the presence of phorbol 12-myristate 13-acetate (PMA: 100 ng/ml; Sigma-Aldrich) and ionomycin (1 μg/ml; Sigma-Aldrich) for 66 hours. For the last 18 hours of culture, ^3H-thymidine (0.037 MBq) was added, and the incorporated radioactivity was measured with MicroBeta^2 (PerkinElmer, Inc., Waltham, MS).
A T cell proliferation assay was performed by culturing CD4^+ T cells (5×10^4 cells) with T cell-depleted irradiated spleen cells (1×10^6 cells) in the presence of phorbol 12-myristate 13-acetate (PMA: 100 ng/ml; Sigma-Aldrich) and ionomycin (1 μg/ml; Sigma-Aldrich) for 66 hours. Test compounds were added at various final concentrations at the start of culture. For the last 18 hours of culture, ^3H-thymidine (0.037 MBq) was added, and the incorporated radioactivity was measured with MicroBeta^2 (PerkinElmer, Inc., Waltham, MS). […]
In general terms: Uptake of a labelled nucleoside into DNA is a usual measure of proliferation.

In another data set the test system is IL-2 gene (Il2). In words: IL-2 gene expression in CD4+ T cells from Dock8−/− AND Tg mice (real-time PCR). The settings on record: 2.5 μM; FIG. 2B. The format is cell-based, mouse. The protocol:
as §2
(§4) CD4^+ T cells (3×10^5 cells) from Dock8^−/− AND Tg mice were cultured with T cell-depleted irradiated spleen cells (5×10^6 cells) containing a test compound (2.5 μM) or a vehicle alone (0.1% DMSO), in the presence of MCC88-103 (3 μg/ml) for 24 hours.

The next data set deals with IL-4 gene (Il4). The data set can be described thus: IL-4 gene expression in CD4+ T cells from Dock8−/− AND Tg mice (real-time PCR). The format is cell-based, mouse. The settings on record: 2.5 μM; FIG. 2B. The protocol: as §2, §4

As to `Cc1ccc(C(=O)COC(=O)c2cccc(NC(=O)c3ccc([N+](=O)[O-])cc3[N+](=O)[O-])c2)cc1` [FM419G11, reference compound], the “VEGFA expression induced by hypoxia” value in data set [1] is reported as “suppressed”. Also, the “GLUT1 expression induced by hypoxia” value in data set [2] was “suppressed”.

Regarding `O=C(O)c1ccc(-c2cn(-c3cc(C(F)(F)F)ccc3Cl)nn2)cc1` [Compound 23, 4-(1-(2-Chloro-5-(trifluoromethyl)phenyl)-1H-1,2,3-triazol-4-yl)benzoic Acid], in the data set on mouse IL-31 gene, the activity at 0.156 µM was 32.5%, the activity at 0.312 µM came to 46.4%, the activity at 0.625 µM worked out at 31.4% and the activity at 1.25 µM was determined as 22.7%. In addition, in the data set on CD4+ T cells, the activity at 5 µM was 110%, the activity at 10 µM was found to be 92.9%, the activity at 20 µM was found to be 88.5% and the activity at 40 µM was 68.9%.

Regarding `CC(C)c1ccc(-c2nnc(-c3ccc(C(=O)O)cc3)o2)cc1` [Compound 31, 4-(5-(4-Isopropylphenyl)-1,3,4-oxadiazol-2-yl)benzoic Acid], in the data set with mouse IL-31 gene, the activity at 0.625 µM amounted to 53.6% and the activity at 1.25 µM was found to be 24%. In the data set on CD4+ T cells, the activity at 10 µM was 97.5%, the activity at 20 µM came out at 79.3% and the activity at 40 µM worked out at 65.6%.

Regarding `CN(C)CCOc1ccc(/C=N/Nc2ccc(C(=O)O)cc2)cc1` [Negative control compound 1, 4-(2-(4-(2-(Dimethylamino)ethoxy)benzylidene)hydrazineyl)benzoic Acid, reference compound], in the data set with mouse IL-31 gene (2.5 μM, FIG. 2A), the “antigen-induced IL-31 gene expression (in words)” value is “not inhibited”. Also, the “IL-31 production inhibitory action (in words, discussion of Table 1)” value in the data set on mouse IL-31 gene (relative to compound 1) was “tended to notably decrease”. The “effect on non-specific T cell proliferation induced by PMA and ionomycin” value in the data set with CD4+ T cells (FIG. 4) is reported as “neither of these compounds had an adverse effect”. Also, the “effect on expression of IL-2 gene” value in the data set on IL-2 gene (Il2) was “neither of these compounds had an effect”. In the data set on IL-4 gene (Il4), the “effect on expression of IL-4 gene” value was “neither of these compounds had an effect”.

Turning to `O=C(O)c1ccc(-c2cn(-c3cc(C(F)(F)F)ccc3F)nn2)cc1` [Compound 24, 4-(1-(2-Fluoro-5-(trifluoromethyl)phenyl)-1H-1,2,3-triazol-4-yl)benzoic Acid], in the data set with mouse IL-31 gene, the activity at 0.156 µM came to 31.2%, the activity at 0.312 µM is 18.1%, the activity at 0.625 µM is 32% and the activity at 1.25 µM is 31.5%. Moreover, in the data set with CD4+ T cells, the activity at 5 µM was found to be 88.1%, the activity at 10 µM worked out at 81.5%, the activity at 20 µM was 71.3% and the activity at 40 µM was determined as 62.9%.

In the case of `O=C(O)c1ccc(-n2ccc(-c3cc(C(F)(F)F)ccc3Cl)n2)cc1` [Compound 30, 4-(3-(2-Chloro-5-(trifluoromethyl)phenyl)-1H-pyrazol-1-yl)benzoic Acid], in the data set on mouse IL-31 gene, the activity at 0.078 µM amounted to 41.5%, the activity at 0.156 µM is 39.9%, the activity at 0.312 µM stood at 29.4% and the activity at 0.625 µM was found to be 23.4%. Moreover, the activity at 1.25 µM in the data set with mouse IL-31 gene is 26.1%. Also, the activity at 2.5 µM in the data set on mouse IL-31 gene (2.5 μM) worked out at 30.9%. In addition, in the data set with CD4+ T cells, the activity at 10 µM amounted to 98.3%, the activity at 20 µM was determined as 90.3% and the activity at 40 µM is 76.4%.

Turning to `O=C(O)c1ccc(-c2nc(-c3cc(C(F)(F)F)ccc3Cl)n[nH]2)cc1` [Compound 25, 4-(3-(2-Chloro-5-(trifluoromethyl)phenyl)-1H-1,2,4-triazol-5-yl)benzoic Acid], in the data set on mouse IL-31 gene, the activity at 0.312 µM stood at 82.7%, the activity at 0.625 µM was 85.6% and the activity at 1.25 µM worked out at 72.2%. For the same compound, the activity at 2.5 µM in the data set with mouse IL-31 gene (2.5 μM) was found to be 81.9%. In the data set with CD4+ T cells, the activity at 10 µM was 82.9%, the activity at 20 µM turned out to be 81.3% and the activity at 40 µM came out at 80.5%.

`O=C(O)c1ccc(-c2ncc(-c3cc(C(F)(F)F)ccc3Cl)[nH]2)cc1` [Compound 27, 4-(5-(2-Chloro-5-(trifluoromethyl)phenyl)-1H-imidazol-2-yl)benzoic Acid]: in the data set on mouse IL-31 gene, the activity at 0.078 µM turned out to be 28.6%, the activity at 0.156 µM came out at 35.1%, the activity at 0.312 µM was 39.6% and the activity at 0.625 µM is 43.1%. Further, the activity at 1.25 µM in the data set with mouse IL-31 gene was 46.8%. For the same compound, in the data set with CD4+ T cells, the activity at 5 µM was 86.2%, the activity at 10 µM stood at 78% and the activity at 20 µM is 70%.
